Columns and labels:
MDA-MB-231 (231) = experiment: CD44 surface expression by FACS in 231 cells; assay type: cell-based, human; conditions: 4 hours post treatment, increasing doses
Protocol: (§1) MDA-MB-231, MDA-MB-468 were purchased from ATCC. For acute treatments, cells were plated at a density of 0.5-1×10^5 cells/ml and allowed to adhere for 24-48 hr. when cells reached ˜70% confluency they were treated with antitubulins at indicated concentrations for 4-24 hours and utilized for subsequent assays. To generate chemotherapy tolerant subset, cells were treated with indicated concentrations of chemotherapy (48). Following washes with PBS, adherent cells were trypsinized and re-plated at a density of 1.5-2×10^5 cells/ml and cultured in serum-containing medium. […]
(§2) Cells were cultured as indicated and fixed with 4% paraformaldehyde in PBS for 30 min at RT and blocked in 10% goat serum (v/v). Following PBS washes, cells were incubated with indicated antibodies for 60 minutes at room temperature or overnight at 4 C and analyzed by FACS (Accuri cyomteters Inc. Ann Arbor, Mich.). Cell cycle analyzed in propidium iodide solution following incubation in 70% Ethanol overnight at 4 C and following manufacturer protocol (Genscript USA Inc. Piscataway, N.J.). AnnexinV/PI was analyzed FACS following manufacturer protocol (BD, Ann Arbor Mich.). All FACS results were analyzed by FlowJo™ software following a rigorous doublet discrimination based on FSC:A vs. width as well as FSC:A vs. height (Tree Star Inc., Ashland Oreg.). […]

[1] = system: MDA-MB-468 (468) cell line; experiment: CD44/CD24 surface expression by FACS in 468 cells; assay type: cell-based, human
Protocol: as §1, §2

[2] = system: CD44, Src (Y527), PRAS40 T246, Hck; experiment: 4T-1 tumor tissue western blot / IHC of CD44 and kinase phosphorylation; assay type: in vivo, mouse; conditions: diminished by day 19
Protocol: (§3) 4-6 week old Balb/C mice (Charles River, Cambridge Mass.) were inoculated with 10^6 4 T-1 mouse mammary carcinoma cells in the left flank (Charles River, Cambridge Mass.). Mice identified with tumors were treated with docetaxel (DTX) or vehicle twice at 72 hour intervals at 10 mg/kg i.v. or 15 mg/kg i.p. and subsequently treated with dasatinib i.p. or nanoparticles i.v. 72 hours following the final DTX dose. Tumors were harvested at indicated time points and evaluated for protein phosphorylation and expression. Experimental detail provided in supplemental data.
(§4) 1 million 4T-1 mouse mammary carcinoma cells suspended in 100 µL PBS were injected per left flank of 5-6 week old Balb/C (Charles River, Wilmington Mass.). DTX was dissolved in pure Ethanol at a concentration of 50 mg/ml mixed 1:1 with Polysorbate 80 (Tween 80) and brought to a final working concentration with 5% glucose in PBS. Once Tumors became palpable (˜100 mm^3), DTX or vehicle treatments were administered at 100 μL volumes. Dasatinib was dissolved in DMSO to working concentration and delivered as 50 μL injections on indicated days, 50 µL DMSO used as a control in these studies. Tumor volumes were measured by a third party unaware of treatment conditions using digital calipers (Starlett, Athol, Mass.), volumes were assessed by the following formula: (Width×Width×length)/2 and expressed as relative volume increase from day 1. Tumor homogenate was prepared by homogenization of equal weight tissue sections incubated in 3×RIPA buffer containing 2× protease/phosphatase inhibitor cocktail (Thermo Fisher, Waltham, Mass.).
Cells were generated as described above and plated in 4 chamber glass slides (BD Biosciences, San Jose Calif.) at a concentration of 100,000 cells/ml. Following treatments, cells were washed in PBS and fixed in 4% Paraformaldehyde for 30 minutes. […] Blocking was performed in 10% (v/v) Goat serum in PBS. The cells were labeled with the indicated primary antibodies at 1:100 and tagged with FITC or unconjugated followed by a secondary antibody conjugated with Alexa Fluor 488 or Alexa Fluor 594 (Invitrogen Carlsbad Calif.) at 1:250 were added 24 hours later and incubated for 90 minutes at room temperature in blocking buffer and masked with DAPI-containing hard-set mounting medium (Vector Laboratories, Burlingame Calif.). Bright field and fluorescent images were obtained using three channels on a NIKON Eclipse TI-U microscope with a 20×ELDW, 10× or 40× Plan-Apo objective lens (Nikon, Melville N.Y.). […] For histological quantification, IHC were scored blindly by a clinical pathologist based on number of cells which stain for the target protein (1-4) and multiplied by the intensity of staining as a subjective percentile. This value was expressed as IHC score to quantify the level of staining. […]

[3] = system: 4T-1 mouse mammary carcinoma; experiment: 4T-1 tumor growth in Balb/C mice; assay type: in vivo
Protocol: as §3, §4

`CC(=O)O[C@@]12CO[C@@H]1C[C@H](O)[C@@]1(C)C(=O)[C@H](O)C3=C(C)[C@@H](OC(=O)[C@H](O)[C@@H](NC(=O)OC(C)(C)C)c4ccccc4)C[C@@](O)([C@@H](OC(=O)c4ccccc4)[C@H]21)C3(C)C` [DTX, docetaxel] was tested, and the CD44 induction (MDA-MB-231 (231)) was “dose-dependent manner”, the CD44/CD24 signature ([1]; 10 nM docetaxel, 24 h) was “induced a CD44^HI, CD24^+/HI signature” and the CD44 surface expression ([1]; 24 hour incubation, 10 nM DTX) was “induction of CD44 was observed”. For the same compound, the “Hck phosphorylation in tumor (IHC)” value ([2]; DTX day 9 vs control) was “markedly enhanced”, the “activated PRAS40 T246 in tumor” value ([2]; DTX day 9 vs control) was “enhancement” and the “inhibitory residue of Src (Y527) phosphorylation in tumor” value ([2]; DTX day 9 vs control) was “Reduction”. For the same compound, the “CD44 expression in tumor tissue” value ([2]; DTX-treated day 9 vs control day 9) was “significantly enhanced CD44 expression”, the “tumor re-emergence after treatment” value ([3]; DTX days 2 and 5, day 19) was “re-emerged robustly by day 19” and the “tumor growth (relative tumor volume)” value ([3]; DTX days 2 and 5 at 10 mg/kg i.v. and 15 mg/kg i.p., vs vehicle) was “inhibited tumor growth”.

From patent US10813931B2, “Methods and compositions relating to the treatment of cancer” (THE BRIGHAM AND WOMEN'S HOSPITAL, INC., priority 2013, dated 2020)
